Assay results published in patent publication US11479551B2, “MTA-cooperative PRMT5 inhibitors” (Mirati Therapeutics, Inc., priority 2019, dated 2022).
Where two headings read alike, the source gives them in different places.

Biological target: PRMT5/MEP50 complex (Homo sapiens (Human), UniProt O14744)
Assay: PRMT5:MEP50 FlashPlate Assay (histone H4 peptide substrate, plus and minus MTA)
Type: biochemical
Protocol: The PRMT5 inhibitory activity of compounds of the present invention was determined using either a PRMT5:MEP50 FlashPlate Assay (Reaction Biology Corporation) or a PRMT5:MEP50 HotSpot Assay (Reaction Biology Corporation).
1. PRMT5:MEP50 FlashPlate Assay

[1] = IC50 + 2 μM MTA (nM), in the presence of 2 μM MTA
[2] = in the absence of MTA, read-out: IC50

Chain of PRMT5/MEP50 complex (O14744 2-637): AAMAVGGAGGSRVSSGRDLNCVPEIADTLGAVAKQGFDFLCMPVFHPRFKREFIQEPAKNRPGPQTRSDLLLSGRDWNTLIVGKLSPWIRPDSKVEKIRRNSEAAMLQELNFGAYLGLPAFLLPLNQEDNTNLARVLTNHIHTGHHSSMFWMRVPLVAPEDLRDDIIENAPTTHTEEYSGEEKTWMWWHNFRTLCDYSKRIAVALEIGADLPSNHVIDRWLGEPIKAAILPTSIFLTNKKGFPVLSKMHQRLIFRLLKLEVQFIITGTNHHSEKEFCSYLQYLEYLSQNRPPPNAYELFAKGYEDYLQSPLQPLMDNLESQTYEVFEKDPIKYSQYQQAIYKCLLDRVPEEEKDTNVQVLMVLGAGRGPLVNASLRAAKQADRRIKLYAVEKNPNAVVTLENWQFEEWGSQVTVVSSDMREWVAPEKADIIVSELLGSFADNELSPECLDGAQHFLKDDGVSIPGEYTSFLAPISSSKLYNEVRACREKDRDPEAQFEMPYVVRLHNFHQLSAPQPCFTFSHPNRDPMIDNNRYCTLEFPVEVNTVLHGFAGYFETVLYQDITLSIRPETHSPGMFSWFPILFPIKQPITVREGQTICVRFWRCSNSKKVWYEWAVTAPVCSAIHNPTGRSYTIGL
Chain of PRMT5/MEP50 complex (Q9BQA1 2-342 partner): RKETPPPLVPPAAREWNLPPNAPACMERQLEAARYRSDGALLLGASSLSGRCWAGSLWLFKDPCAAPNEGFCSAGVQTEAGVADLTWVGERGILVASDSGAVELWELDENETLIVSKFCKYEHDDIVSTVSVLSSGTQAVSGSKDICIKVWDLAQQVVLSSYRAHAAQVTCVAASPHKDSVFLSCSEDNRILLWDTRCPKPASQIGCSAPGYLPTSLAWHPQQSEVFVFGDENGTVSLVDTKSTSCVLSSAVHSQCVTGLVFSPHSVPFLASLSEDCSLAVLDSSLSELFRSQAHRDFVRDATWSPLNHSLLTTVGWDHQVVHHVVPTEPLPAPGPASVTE

| IC50 [1] [nM] | IC50 [2] [nM] | SMILES |
| --- | --- | --- |
| 260 | 3870 | N#Cc1ccc2ncc(-c3ccc4c(=O)[nH]nc(CN)c4c3)n2c1 [Example 4-15, 3-(4-(aminomethyl)-1-oxo-1,2-dihydrophthalazin-6-yl)imidazo[1,2-a]pyridine-6-carbonitrile] |
| 150 | 2050 | Cc1ccc2ncc(-c3ccc4c(=O)[nH]nc(CN)c4c3)n2n1 [Example 4-17, 4-(aminomethyl)-6-(6-methylimidazo[1,2-b]pyridazin-3-yl)phthalazin-1(2H)-one] |
| 280 | 4420 | NCc1n[nH]c(=O)c2ccc(-c3cnc4ccc(Cl)nn34)cc12 [Example 4-18, 4-(aminomethyl)-6-(6-chloroimidazo[1,2-b]pyridazin-3-yl)phthalazin-1(2H)-one] |
| 380 | > 100000 | COc1ccn2c(-c3ccc4c(=O)[nH]nc(CN)c4c3)cnc2c1 [Example 4-19, 4-(aminomethyl)-6-(7-methoxyimidazo[1,2-a]pyridin-3-yl)phthalazin-1(2H)-one] |
| 47 | 1020 | Cc1ccc2ncc(-c3ccc4c(=O)[nH]nc(CN)c4c3)n2c1 [Example 4-20, 4-(aminomethyl)-6-(6-methylimidazo[1,2-a]pyridin-3-yl)phthalazin-1(2H)-one] |
| 70 | 1970 | NCc1n[nH]c(=O)c2ccc(-c3cnc4ccc(F)cn34)cc12 [Example 4-21, 4-(aminomethyl)-6-(6-fluoroimidazo[1,2-a]pyridin-3-yl)phthalazin-1(2H)-one] |
| 370 | 8680 | NCc1n[nH]c(=O)c2ccc(-c3cnc4c(F)cccn34)cc12 [Example 4-22, 4-(aminomethyl)-6-(8-fluoroimidazo[1,2-a]pyridin-3-yl)phthalazin-1(2H)-one] |
| > 100000 | > 100000 | Cc1nc2cnccn2c1-c1ccc2c(=O)[nH]nc(CN)c2c1 [Example 4-23, 4-(aminomethyl)-6-(2-methylimidazo[1,2-a]pyrazin-3-yl)phthalazin-1(2H)-one] |
| 840 | 13400 | Cc1cn2c(-c3ccc4c(=O)[nH]nc(CN)c4c3)cnc2cn1 [Example 4-24, 4-(aminomethyl)-6-(6-methylimidazo[1,2-a]pyrazin-3-yl)phthalazin-1(2H)-one] |
| 1700 | > 100000 | NCc1n[nH]c(=O)c2ccc(-c3cnc4cnccn34)cc12 [Example 4-25, 4-(aminomethyl)-6-(imidazo[1,2-a]pyrazin-3-yl)phthalazin-1(2H)-one] |
| 130 | 1730 | NCc1n[nH]c(=O)c2ccc(-c3cnc4cccnn34)cc12 [Example 4-26, 4-(aminomethyl)-6-(imidazo[1,2-b]pyridazin-3-yl)phthalazin-1(2H)-one] |
| 1300 | > 100000 | NCc1n[nH]c(=O)c2ccc(-c3cnc4c(F)cc(Cl)cn34)cc12 [Example 4-27, 4-(aminomethyl)-6-(6-chloro-8-fluoroimidazo[1,2-a]pyridin-3-yl)phthalazin-1(2H)-one] |
| 140 | 6790 | NCc1n[nH]c(=O)c2ccc(-c3cnc4cc(Cl)ccn34)cc12 [Example 4-28, 4-(aminomethyl)-6-(7-chloroimidazo[1,2-a]pyridin-3-yl)phthalazin-1(2H)-one] |
| 190 | 4030 | NCc1n[nH]c(=O)c2ccc(-c3cnc4cc(F)ccn34)cc12 [Example 4-29, 4-(aminomethyl)-6-(7-fluoroimidazo[1,2-a]pyridin-3-yl)phthalazin-1(2H)-one] |
| 400 | 4750 | Cc1ccn2c(-c3ccc4c(=O)[nH]nc(CN)c4c3)cnc2c1 [Example 4-30, 4-(aminomethyl)-6-(7-methylimidazo[1,2-a]pyridin-3-yl)phthalazin-1(2H)-one] |
| 410 | 7630 | Cn1ncc(-c2ccc3c(=O)[nH]nc(CN)c3c2)c1C#N [Example 4-31, 4-(4-(aminomethyl)-1-oxo-1,2-dihydrophthalazin-6-yl)-1-methyl-1H-pyrazole-5-carbonitrile] |
| > 100000 | > 100000 | Cc1nc2ccc(F)cn2c1-c1ccc2c(=O)[nH]nc(CN)c2c1 [Example 4-33, 4-(aminomethyl)-6-(6-fluoro-2-methylimidazo[1,2-a]pyridin-3-yl)phthalazin-1(2H)-one] |
| 110 | 2800 | NCc1n[nH]c(=O)c2ccc(-c3cnc4ccc(Cl)cn34)cc12 [Example 4-34, 4-(aminomethyl)-6-(6-chloroimidazo[1,2-a]pyridin-3-yl)phthalazin-1(2H)-one] |
| 1100 | > 100000 | N#Cc1ccn2c(-c3ccc4c(=O)[nH]nc(CN)c4c3)cnc2c1 [Example 4-35, 3-(4-(aminomethyl)-1-oxo-1,2-dihydrophthalazin-6-yl)imidazo[1,2-a]pyridine-7-carbonitrile] |
| 1.1 | 213 | NCc1n[nH]c(=O)c2ccc(-c3cnc4ccc(OC5CC5)cn34)cc12 [Example 4-37, 4-(aminomethyl)-6-(6-cyclopropoxyimidazo[1,2-a]pyridin-3-yl)phthalazin-1(2H)-one] |
| 25 | 850 | NCc1n[nH]c(=O)c2ccc(-c3cnc4ccc(OC(F)(F)F)cn34)cc12 [Example 4-38, 4-(aminomethyl)-6-(6-(trifluoromethoxy)imidazo[1,2-a]pyridin-3-yl)phthalazin-1(2H)-one] |
| 1.7 | 109 | NCc1n[nH]c(=O)c2ccc(-c3cnc4ccc(-c5ccccc5)cn34)cc12 [Example 4-39, 4-(aminomethyl)-6-(6-phenylimidazo[1,2-a]pyridin-3-yl)phthalazin-1(2H)-one] |
| 56 | 4810 | N#Cc1c[nH]c2ncc(-c3ccc4c(=O)[nH]nc(CN)c4c3)cc12 [Example 4-41, 5-(4-(aminomethyl)-1-oxo-1,2-dihydrophthalazin-6-yl)-1H-pyrrolo[2,3-b]pyridine-3-carbonitrile] |
| 45 | 1380 | NCc1n[nH]c(=O)c2ccc(-c3cnc4[nH]cc(F)c4c3)cc12 [Example 4-42, 4-(aminomethyl)-6-(3-fluoro-1H-pyrrolo[2,3-b]pyridin-5-yl)phthalazin-1(2H)-one] |
| 32 | 1520 | NCc1n[nH]c(=O)c2ccc(-c3cnc4[nH]cc(C(F)(F)F)c4c3)cc12 [Example 4-43, 4-(aminomethyl)-6-(3-(trifluoromethyl)-1H-pyrrolo[2,3-b]pyridin-5-yl)phthalazin-1(2H)-one] |
| 0.6 | 329 | COCc1c[nH]c2ncc(-c3ccc4c(=O)[nH]nc(CN)c4c3)cc12 [Example 4-46, 4-(aminomethyl)-6-(3-(methoxymethyl)-1H-pyrrolo[2,3-b]pyridin-5-yl)phthalazin-1(2H)-one] |
| 19 | 667 | NCc1n[nH]c(=O)c2ccc(-c3cnc4[nH]cc(CO)c4c3)cc12 [Example 4-47, 4-(aminomethyl)-6-(3-(hydroxymethyl)-1H-pyrrolo[2,3-b]pyridin-5-yl)phthalazin-1(2H)-one] |
| 22 | 750 | COc1c(-c2ccc3c(=O)[nH]nc(CN)c3c2)cnn1C [Example 4-48, 4-(aminomethyl)-6-(5-methoxy-1-methyl-1H-pyrazol-4-yl)phthalazin-1(2H)-one] |
